According to PMC6572064, “Discovery of 2-(1-(3-(4-Chloroxyphenyl)-3-oxo- propyl)pyrrolidine-3-yl)-1H-benzo[d]imidazole-4-carboxamide: A Potent Poly(ADP-ribose) Polymerase (PARP) Inhibitor for Treatment of Cancer” (Molecules, 2019):
Read-outs that look alike come from different tables or passages of the source.

Legend:
PARP-1 = target: T1, PARP-1 (Homo sapiens, UniProt P09874); experiment: PARP-1 inhibition assay (PARP-1 Chemiluminescent Assay Kit, BPS Bioscience); format: biochemical; conditions: 10 nM compound
T1 construct: purchased BPS Bioscience 80569
Experimental: (§1) The PARP-1 and PARP-2 inhibition assays were performed in outsourcing, by a CRO company, Shanghai Medicilon Inc. (Shanghai, China). […] Briefly, PARP-1 or PARP-2 biotinylated substrate was incubated with compounds or solvent control at varying concentrations and an assay buffer containing the PARP-1 or PARP-2 enzyme.

[1] = test system: MDA-MB-436 (a BRCA-1-mutated breast cancer cell line); experiment: Cell proliferation assay, three-day, CellTiter-Glo, MDA-MB-436; format: cell-based; conditions: for inhibition at 0.00508 µM / inhibition at 0.0152 µM / inhibition at 0.0457 µM / inhibition at 0.41 µM / inhibition at 1.23 µM / inhibition at 3.7 µM / inhibition at 11.11 µM / inhibition at 33.33 µM / inhibition at 100 µM / IC50: Homo sapiens; for inhibition at 0.00508 µM: MDA-MB-436, MDA-MB-436, Conc. 0.00508 uM; for inhibition at 0.0152 µM: MDA-MB-436, MDA-MB-436, Conc. 0.0152 uM; for inhibition at 0.0457 µM: MDA-MB-436, MDA-MB-436, Conc. 0.0457 uM; for inhibition at 0.41 µM: MDA-MB-436, MDA-MB-436, Conc. 0.41 uM; for inhibition at 1.23 µM: MDA-MB-436, MDA-MB-436, Conc. 1.23 uM; for inhibition at 3.7 µM: MDA-MB-436, MDA-MB-436, Conc. 3.70 uM; for inhibition at 11.11 µM: MDA-MB-436, MDA-MB-436, Conc. 11.11 uM; for inhibition at 33.33 µM: MDA-MB-436, MDA-MB-436, Conc. 33.33 uM; for inhibition at 100 µM: MDA-MB-436, MDA-MB-436, Conc. 100.00 uM
Experimental: (§2) A three-day assay was conducted. A cell suspension was prepared. Cell density was counted by an automated cell counter and then diluted to the required density, according to seeding density. 50 μL cells were seeded into 384-well plate in growth medium according to the plate map. The cells were incubated at 37 °C, 5% CO2 overnight.
(§3) 200× compound solution in DMSO was prepared and diluted with growth medium to 26× final concentration by addition of 26 μL 200× compounds to 174 μL growth medium. Then 2 μL of diluted compound solution was added to cells and the cell was incubated at 37 °C, 5% CO2 for 72 h.
(§4) The assay plate was equilibrated to room temperature prior to measurement. 15 μL of CellTiter-Glo Reagent was added into each well and the contents were mixed for 2 min on an orbital shaker to induce cell lysis. The cells were incubated at room temperature for 60 min to stabilize luminescent signal. Luminescence was recorded on the Envision system.

[2] = test system: CAPAN-1 (a BRCA-2-mutated pancreatic cancer cell line); experiment: Cell proliferation assay, three-day, CellTiter-Glo, CAPAN-1; format: cell-based; conditions: for IC50 / inhibition at 0.00508 µM / inhibition at 0.0152 µM / inhibition at 0.0457 µM / inhibition at […] / inhibition at 0.41 µM / inhibition at 1.23 µM / inhibition at 3.7 µM / inhibition at 11.11 µM / inhibition at 33.33 µM / inhibition at 100 µM: Homo sapiens; for inhibition at 0.00508 µM: CAPAN-1, 0.00508 uM; for inhibition at 0.0152 µM: CAPAN-1, 0.0152 uM; for inhibition at 0.0457 µM: CAPAN-1, 0.0457 uM; for inhibition at […]: CAPAN-1, 0.14 uM; for inhibition at 0.41 µM: CAPAN-1, 0.41 uM; for inhibition at 1.23 µM: CAPAN-1, 1.23 uM; for inhibition at 3.7 µM: CAPAN-1, 3.70 uM; for inhibition at 11.11 µM: CAPAN-1, 11.11 uM; for inhibition at 33.33 µM: CAPAN-1, 33.33 uM; for inhibition at 100 µM: CAPAN-1, 100.00 uM
Experimental: as §2, §3, §4

PARP-2 = target: T2, PARP-2 (Homo sapiens, UniProt Q9UGN5); experiment: PARP-2 inhibition assay (PARP-2 Chemiluminescent Assay Kit, BPS Bioscience); format: biochemical; conditions: 10 nM compound
T2 construct: purchased BPS Bioscience 80552
Experimental: as §1

T1 sequence (P09874 whole entry): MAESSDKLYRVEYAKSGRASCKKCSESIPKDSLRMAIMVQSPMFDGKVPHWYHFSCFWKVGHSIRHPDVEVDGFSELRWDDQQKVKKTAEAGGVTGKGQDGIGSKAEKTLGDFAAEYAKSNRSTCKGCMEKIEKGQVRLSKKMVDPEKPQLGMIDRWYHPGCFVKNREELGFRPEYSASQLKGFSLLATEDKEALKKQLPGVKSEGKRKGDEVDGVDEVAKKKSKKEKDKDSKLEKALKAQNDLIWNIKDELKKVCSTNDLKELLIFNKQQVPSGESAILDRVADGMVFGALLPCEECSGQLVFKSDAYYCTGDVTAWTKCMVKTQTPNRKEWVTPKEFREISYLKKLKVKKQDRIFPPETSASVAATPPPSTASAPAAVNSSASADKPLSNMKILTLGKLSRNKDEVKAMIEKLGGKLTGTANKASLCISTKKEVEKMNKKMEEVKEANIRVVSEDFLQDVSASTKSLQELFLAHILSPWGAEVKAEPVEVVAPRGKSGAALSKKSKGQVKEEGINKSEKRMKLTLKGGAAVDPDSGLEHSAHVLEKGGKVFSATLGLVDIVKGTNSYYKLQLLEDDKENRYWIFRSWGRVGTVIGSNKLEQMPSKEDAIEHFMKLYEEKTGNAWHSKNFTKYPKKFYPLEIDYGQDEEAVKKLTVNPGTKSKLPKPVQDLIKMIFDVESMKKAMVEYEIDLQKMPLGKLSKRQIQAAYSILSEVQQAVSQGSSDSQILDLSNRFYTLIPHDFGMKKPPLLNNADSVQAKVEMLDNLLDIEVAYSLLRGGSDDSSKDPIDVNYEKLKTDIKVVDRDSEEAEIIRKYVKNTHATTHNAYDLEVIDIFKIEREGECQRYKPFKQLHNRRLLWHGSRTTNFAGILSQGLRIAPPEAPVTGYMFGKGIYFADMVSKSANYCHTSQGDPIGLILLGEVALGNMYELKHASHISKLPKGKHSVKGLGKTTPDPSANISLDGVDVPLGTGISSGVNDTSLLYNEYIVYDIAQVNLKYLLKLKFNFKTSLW
T2 sequence (Q9UGN5 whole entry): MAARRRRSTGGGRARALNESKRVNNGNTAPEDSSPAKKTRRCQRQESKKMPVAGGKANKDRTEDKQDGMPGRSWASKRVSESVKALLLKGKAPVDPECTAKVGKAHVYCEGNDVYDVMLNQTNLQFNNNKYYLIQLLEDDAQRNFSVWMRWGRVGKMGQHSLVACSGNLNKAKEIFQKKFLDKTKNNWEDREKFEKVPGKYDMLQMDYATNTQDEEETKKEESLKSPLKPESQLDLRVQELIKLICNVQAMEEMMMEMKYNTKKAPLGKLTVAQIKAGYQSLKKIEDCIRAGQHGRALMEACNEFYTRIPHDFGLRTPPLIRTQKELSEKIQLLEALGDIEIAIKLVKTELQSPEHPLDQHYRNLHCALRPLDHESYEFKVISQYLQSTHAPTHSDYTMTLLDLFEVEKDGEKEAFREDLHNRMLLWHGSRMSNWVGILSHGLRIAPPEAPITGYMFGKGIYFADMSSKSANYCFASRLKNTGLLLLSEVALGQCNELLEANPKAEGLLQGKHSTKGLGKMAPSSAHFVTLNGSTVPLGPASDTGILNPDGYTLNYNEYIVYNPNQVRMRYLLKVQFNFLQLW

Q: For NC(=O)c1cccc2[nH]c(C3CCN(CC(=O)c4ccccc4)C3)nc12 (stereo not shown) [Compound 5cd, 2-(1-(2-Oxo-2-phenylethyl)pyrrolidin-3-yl)-1H-benzo[d]imidazole-4-carboxa-mide], which inhibition at 0.01 µM (PARP-1; supplement sheet, read-out: 10 nM inhibition% PAPR-1) is on record?
A: -1.05%

Q: What about the inhibition at 0.01 µM (PARP-1; read-out: PARP-1 Inhibition % (10 nM)) of the same compound?
A: -1.1%

Q: And the inhibition at 0.00508 µM ([1]; replicate 1, read-out: Inh % 1)?
A: -0.654%

Q: And the inhibition at 0.00508 µM ([1]; replicate 2, read-out: Inh % 2)?
A: -7.1%

Q: And the inhibition at 0.0152 µM ([1]; replicate 1, read-out: Inh % 1)?
A: -3.7%

Q: What about the inhibition at 0.0152 µM ([1]; replicate 2, read-out: Inh % 2) of the same compound?
A: -6.1%

Q: And the inhibition at 0.0457 µM ([1]; replicate 1, read-out: Inh % 1)?
A: -6.8%

Q: What about the inhibition at 0.0457 µM ([1]; replicate 2, read-out: Inh % 2) of the same compound?
A: -12.7%

Q: And the inhibition at 0.41 µM ([1]; replicate 1, read-out: Inh % 1)?
A: -13.5%

Q: And the inhibition at 0.41 µM ([1]; replicate 2, read-out: Inh % 2)?
A: -13.2%

Q: What about the inhibition at 1.23 µM ([1]; replicate 1, read-out: Inh % 1) of the same compound?
A: -16.5%

Q: What about the inhibition at 1.23 µM ([1]; replicate 2, read-out: Inh % 2) of the same compound?
A: -19%

Q: And the inhibition at 3.7 µM ([1]; replicate 1, read-out: Inh % 1)?
A: -10.3%

Q: What about the inhibition at 3.7 µM ([1]; replicate 2, read-out: Inh % 2) of the same compound?
A: -11.7%

Q: What about the inhibition at 11.11 µM ([1]; replicate 1, read-out: Inh % 1) of the same compound?
A: 0.3%

Q: What about the inhibition at 11.11 µM ([1]; replicate 2, read-out: Inh % 2) of the same compound?
A: -11%

Q: And the inhibition at 33.33 µM ([1]; replicate 1, read-out: Inh % 1)?
A: 35.4%

Q: And the inhibition at 33.33 µM ([1]; replicate 2, read-out: Inh % 2)?
A: 16.5%

Q: And the inhibition at 100 µM ([1]; replicate 1, read-out: Inh % 1)?
A: 68.9%

Q: And the inhibition at 100 µM ([1]; replicate 2, read-out: Inh % 2)?
A: 66.2%

Q: And the IC50 ([1]; MDA-MB-436, 72 h, CellTiter-Glo, read-out: MDA-MB-436 IC50)?
A: 55 µM

Q: What about the IC50 ([1]; MDA-MB-436, 72 h, supplement Summary sheet, read-out: IC50) of the same compound?
A: 55 µM

Q: What about the IC50 ([1]; MDA-MB-436, curve fit list, no unit in the cell, concentration in uM, read-out: IC50) of the same compound?
A: 55 µM

Q: And the LogIC50 ([1]; MDA-MB-436, curve fit on Log (uM) concentrations)?
A: 1.74

Q: And the Bottom ([1]; MDA-MB-436, curve fit parameter (Inh %))?
A: -10.87

Q: And the Top ([1]; MDA-MB-436, curve fit parameter (Inh %), '= 100.0' is a constrained value)?
A: = 100.0

Q: And the LogIC50 ([2]; CAPAN-1, curve-fit output, Log (uM))?
A: 1.917

Q: And the IC50 ([2]; CAPAN-1, 72 h, CellTiter-Glo, read-out: CAPAN-1 IC50)?
A: 82.5 µM

Q: What about the inhibition at 0.00508 µM ([2]; replicate 1, read-out: Inh % 1) of the same compound?
A: 4.6%

Q: What about the inhibition at 0.00508 µM ([2]; replicate 2, read-out: Inh % 2) of the same compound?
A: -0.8%

Q: What about the inhibition at 0.0152 µM ([2]; replicate 1, read-out: Inh % 1) of the same compound?
A: 2.6%

Q: What about the inhibition at 0.0152 µM ([2]; replicate 2, read-out: Inh % 2) of the same compound?
A: -1.6%

Q: What about the inhibition at 0.0457 µM ([2]; replicate 1, read-out: Inh % 1) of the same compound?
A: 0.6%

Q: What about the inhibition at 0.0457 µM ([2]; replicate 2, read-out: Inh % 2) of the same compound?
A: -4.7%

Q: And the inhibition at […] ([2]; replicate 1, read-out: Inh % 1)?
A: 3.7%

Q: What about the inhibition at […] ([2]; replicate 2, read-out: Inh % 2) of the same compound?
A: -1.1%

Q: What about the inhibition at 0.41 µM ([2]; replicate 1, read-out: Inh % 1) of the same compound?
A: 13.1%

Q: What about the inhibition at 0.41 µM ([2]; replicate 2, read-out: Inh % 2) of the same compound?
A: 3.2%

Q: And the inhibition at 1.23 µM ([2]; replicate 1, read-out: Inh % 1)?
A: 2.1%

Q: And the inhibition at 1.23 µM ([2]; replicate 2, read-out: Inh % 2)?
A: 3.2%

Q: What about the inhibition at 3.7 µM ([2]; replicate 1, read-out: Inh % 1) of the same compound?
A: 4%

Q: And the inhibition at 3.7 µM ([2]; replicate 2, read-out: Inh % 2)?
A: 4.4%

Q: What about the inhibition at 11.11 µM ([2]; replicate 1, read-out: Inh % 1) of the same compound?
A: 1%

Q: And the inhibition at 11.11 µM ([2]; replicate 2, read-out: Inh % 2)?
A: 4.4%

Q: And the inhibition at 33.33 µM ([2]; replicate 1, read-out: Inh % 1)?
A: 17.9%

Q: What about the inhibition at 33.33 µM ([2]; replicate 2, read-out: Inh % 2) of the same compound?
A: 8.7%

Q: What about the inhibition at 100 µM ([2]; replicate 1, read-out: Inh % 1) of the same compound?
A: 68%

Q: What about the inhibition at 100 µM ([2]; replicate 2, read-out: Inh % 2) of the same compound?
A: 55.2%

Q: What about the IC50 ([2]; CAPAN-1, 72 h, supplement Summary sheet, read-out: IC50) of the same compound?
A: 82.5 µM

Q: What about the IC50 ([2]; CAPAN-1, curve-fit output, concentrations in uM, read-out: IC50) of the same compound?
A: 82.5 µM

Q: And the inhibition at 0.01 µM (PARP-2; supplement sheet, read-out: 10 nM inhibition% PAPR-2)?
A: 7.18%

Q: And the inhibition at 0.01 µM (PARP-2; read-out: PARP-2 Inhibition % (10 nM))?
A: 7.2%
